The subject of this series is Mortierella elongata AG77. Nature of the series: Carbon source utilisation in Biolog 96-well plates, formazan formation after tetrazolium addition. The class given is cell-based. To be noted: for Metabolized: Metabolized = more formazan formation than a control containing no carbon source, observed visually at 2 h, 24 h, 148 h; for Carbon sources that Mortierella elongata AG77 can metabolize: summary of Table 3. Here is the method:
Two 300 mL volumes of growth medium comprising 1 g/L KH2PO4, 1 g/L MgSO4 7H2O, 0.1 g/L CaCl2, 0.02 g/L FeNaEDTA, 0.1 g/L NaCl, and either 1 g/L NH4NO3 or 20 g/L sucrose were prepared. Acidity was adjusted to 5.5 using NaOH and volumes of growth medium were autoclaved 30 min at 121° C. to sterilize. Aliquots of 200 μL of carbon-free medium or nitrogen-free medium were pipetted into each well of a set of 96-well plates previously prepared with lyophilized putative carbon or nitrogen sources (Biolog Inc., Hayward, Calif.). Inocula were prepared by perforating a culture of Mortierella elongata AG77 grown on 20 g/L potato dextrose agar with a 3 mm diameter cork borer and separating the surface mycelial mat from the solid growth medium using tweezers. Each well was inoculated with one inoculum. Cultures were incubated at 21° C. for 24 hours to allow metabolic changes to stabilize, and then 100 μL of 3 g/L tetrazolium chloride in water was added to each well. Formazan formation was observed visually at 2 h, 24 h, and 148 h.
Conclusions were based on rate and intensity of formazan formation using the 3-4,5-dimethylthiazol-2-yl)-2,5-diphenyltetrazolium bromide (MTT) assay. “Metabolized” indicates more formazan formation than a control containing no carbon source, and “Toxic” indicates less formazan formation than a control containing no carbon source. “Metabolized” and “Toxic” assignments are mutually exclusive. In this example, a compound may be “Metabolized” or “Toxic,” but not both.

Setting [1] is: compound as carbon source, Toxic = less formazan formation than a control containing no carbon source.

The source of these data is patent US20200325505A1, “FILAMENTOUS FUNGI CAPABLE OF PRODUCING VERY LONG CHAIN FATTY ACIDS” (UT-Battelle, LLC, priority 2019, published 2020).

Structures are written as SMILES. Read-outs that look alike come from different tables or passages of the source.

Take `OC[C@H]1O[C@@H](O[C@@H]2[C@@H](CO)OC(O)(CO)[C@H]2O)[C@H](O)[C@@H](O)[C@H]1O` (mixture of isomers) [Lactulose]: the Toxic result was “no”. Besides, for the setting “compound as carbon source”, the Metabolized result was “no”.
Turning to `C[N+](C)(C)CC(O)CC(=O)[O-]` (racemic) [D,L-Carnitine], the “Carbon sources that Mortierella elongata AG77 can metabolize” value is reported as “can metabolize”. For the same molecule, the Metabolized entry (compound as carbon source) is listed as “yes”. Further, the Toxic result under setting [1] is listed as “no”.
Regarding `O=C(O)CC(O)C(=O)O` (racemic) [D,L-Malic Acid], the Metabolized entry (compound as carbon source) was “no”. The Toxic entry under setting [1] was “no”.
As for `NCC(O)c1ccc(O)cc1` (racemic) [D,L-Octopamine], the Metabolized entry (compound as carbon source) was “no”. For the same molecule, the Toxic result under setting [1] is “no”.
Regarding `O=P(O)(O)OCC(O)CO` (racemic) [D,L-α-Glycerol- Phosphate], the Metabolized result (compound as carbon source) was “no”. Besides, the Toxic entry under setting [1] is listed as “no”.
For `CC(O)CO` (stereo not shown) [1,2-Propanediol], the “Carbon sources that Mortierella elongata AG77 can metabolize” value is “can metabolize”. The Metabolized entry (compound as carbon source) is “yes”. The Toxic result under setting [1] was “no”.
Regarding `CC(O)C(C)O` (stereo not shown) [2,3-Butanediol], the Toxic entry is listed as “no”. The Metabolized entry (compound as carbon source) was “no”.
As for `CC(=O)C(C)=O` [2,3-Butanedione], the Metabolized result (compound as carbon source) is “no”. For the same molecule, the Toxic entry under setting [1] is reported as “no”.
`Nc1ncnc2c1ncn2C1CC(O)C(CO)O1` (stereo not shown) [2-Deoxy Adenosine]: the Metabolized entry (compound as carbon source) is “no”. Moreover, under setting [1], the Toxic entry is “no”.
With `O=CC[C@H](O)[C@H](O)CO` [2-Deoxy-D-Ribose], the Toxic entry is “no”. Further, the Metabolized result (compound as carbon source) is recorded as “no”.
In the case of `O=C(O)c1ccccc1O` [2-Hydroxy Benzoic Acid], for the setting “compound as carbon source”, the Metabolized result was “no”.
Take `O=C[C@@H](O)[C@H](O[C@@H]1O[C@H](CO)[C@H](O)[C@H](O)[C@H]1O)[C@H](O)CO` [3-0-β-D-Galacto-pyranosyl-D-Arabinose]: the Metabolized result (compound as carbon source) was “no”. Moreover, under setting [1], the Toxic result was “no”.
As for `CC(=O)C(C)O` (stereo not shown) [3-Hydroxy 2-Butanone], for the setting “compound as carbon source”, the Metabolized entry was “no”. For the same molecule, the Toxic result under setting [1] was “no”.
As for `O=C(O)c1ccc(O)cc1` [4-Hydroxy Benzoic Acid], the Toxic entry is on record as “no”. Under “compound as carbon source”, the Metabolized entry is given as “no”.
Consider `O=C(CO)[C@@H](O)[C@H](O)[C@@H](O)C(=O)O` [5-Keto-D-Gluconic Acid], for which, under “compound as carbon source”, the Metabolized result is listed as “no”. In addition, the Toxic entry under setting [1] was “no”.
For the molecule `CC(=O)O` [Acetic Acid], under “compound as carbon source”, the Metabolized result is listed as “no”.
Take `CC(=O)CC(=O)O` [Acetoacetic Acid]: the Toxic entry is “no” and the “Carbon sources that Mortierella elongata AG77 can metabolize” value is “can metabolize”. The Metabolized result (compound as carbon source) is recorded as “yes”.
`OC[C@@H](O)[C@@H](O)[C@@H](O)CO` [Adonitol]: the Toxic result is listed as “no”. Where the note is “compound as carbon source”, the Metabolized entry is “no”.
For `N#C[C@H](O[C@@H]1O[C@H](CO[C@@H]2O[C@H](CO)[C@@H](O)[C@H](O)[C@H]2O)[C@@H](O)[C@H](O)[C@H]1O)c1ccccc1` [Amygdalin], the Metabolized entry (compound as carbon source) is “no”. Further, the Toxic entry under setting [1] is “no”.
For the molecule `OC[C@H]1O[C@@H](Oc2ccc(O)cc2)[C@H](O)[C@@H](O)[C@@H]1O` [Arbutin], the Metabolized result (compound as carbon source) is listed as “no”. Moreover, the Toxic result under setting [1] is recorded as “no”.
On to `O=C(O)CC(Br)C(=O)O` (stereo not shown) [Bromo Succinic Acid], for which the Metabolized entry (compound as carbon source) is given as “no”. Besides, the Toxic entry under setting [1] is on record as “no”.
For `CCCC(=O)O` [Butyric Acid], the Toxic entry is on record as “no”. In addition, the Metabolized entry (compound as carbon source) is “no”.
For `CCCCCCCCCC(=O)O` [Capric Acid], the Toxic result was “no”. For the same molecule, the Metabolized result (compound as carbon source) is “no”.
As to `CCCCCC(=O)O` [Caproic Acid], the Metabolized result (compound as carbon source) is recorded as “no”. For the same molecule, under setting [1], the Toxic entry is “no”.
With `C/C(=C/C(=O)O)C(=O)O` [Citraconic Acid], the Toxic entry was “no”. Also, the Metabolized entry (compound as carbon source) is given as “no”.
Turning to `CC(O)(CC(=O)O)C(=O)O` (stereo not shown) [Citramalic Acid], the Toxic entry is given as “no”. Further, the Metabolized entry (compound as carbon source) is “no”.
As to `O=C(O)CC(O)(CC(=O)O)C(=O)O` [Citric Acid], the “Carbon sources that Mortierella elongata AG77 can metabolize” value is given as “can metabolize”. Further, for the setting “compound as carbon source”, the Metabolized result is “yes”.
As for `O=C[C@@H](O)[C@H](O)[C@H](O)CO` [D-Arabinose], the Toxic entry is recorded as “no”. The Metabolized entry (compound as carbon source) is listed as “no”.
As to `OC[C@@H](O)C(O)[C@H](O)CO` [D-Arabitol], under “compound as carbon source”, the Metabolized entry is “no”. In addition, the Toxic result under setting [1] is on record as “no”.
Regarding `OC[C@H]1O[C@@H](O[C@H]2[C@H](O)[C@@H](O)[C@H](O)O[C@@H]2CO)[C@H](O)[C@@H](O)[C@@H]1O` [D-Cellobiose], the Metabolized result (compound as carbon source) was “no”.
Take `O=C(CO)[C@@H](O)[C@H](O)[C@H](O)COP(=O)(O)O` [D-Fructose-6-Phosphate]: the “Carbon sources that Mortierella elongata AG77 can metabolize” value is reported as “can metabolize”. Besides, the Metabolized entry (compound as carbon source) is given as “yes”. The Toxic entry under setting [1] is listed as “no”.
Regarding `O=C(CO)[C@@H](O)[C@H](O)[C@H](O)CO` [D-Fructose], the Toxic result is on record as “no”. Besides, under “compound as carbon source”, the Metabolized entry is on record as “no”.
In the case of `C[C@@H](O)[C@H](O)[C@H](O)[C@@H](O)C=O` [D-Fucose], the “Carbon sources that Mortierella elongata AG77 can metabolize” value was “can metabolize”. The Metabolized entry (compound as carbon source) was “yes”. Besides, the Toxic result under setting [1] is recorded as “no”.
Taken in the same sequence, the figures for `O=C1O[C@@H]([C@H](O)CO)[C@H](O)[C@H]1O` [D-Galactonic Acid-γ-Lactone] were “can metabolize”, “yes” and “no”.
Regarding `O=C[C@H](O)[C@@H](O)[C@@H](O)[C@H](O)CO` [D-Galactose], the Toxic entry is “no”. Moreover, the Metabolized entry (compound as carbon source) is “no”.
With `O=C[C@H](O)[C@@H](O)[C@@H](O)[C@H](O)C(=O)O` [D-Galacturonic Acid], the Toxic result was “no”. Where the note is “compound as carbon source”, the Metabolized result was “no”.
For the molecule `O=C(O)[C@H](O)[C@@H](O)[C@H](O)[C@H](O)CO` [D-Gluconic Acid], the Metabolized entry (compound as carbon source) was “no”. The Toxic result under setting [1] is “no”.
On to `N[C@@H](C(=O)O)[C@@H](O)[C@H](O)[C@H](O)CO` [D-Glucosaminic Acid], for which the “Carbon sources that Mortierella elongata AG77 can metabolize” value is on record as “can metabolize”. Where the note is “compound as carbon source”, the Metabolized entry is “yes”. Moreover, the Toxic entry under setting [1] was “no”.
Regarding `O=P(O)(O)O[C@H]1O[C@H](CO)[C@@H](O)[C@H](O)[C@H]1O` [D-Glucose-1-Phosphate], the “Carbon sources that Mortierella elongata AG77 can metabolize” value is on record as “can metabolize”. The Metabolized entry (compound as carbon source) is “yes”.
On to `O=C[C@H](O)[C@@H](O)[C@H](O)[C@H](O)COP(=O)(O)O` [D-Glucose-6-Phosphate], for which the Toxic result was “no” and the “Carbon sources that Mortierella elongata AG77 can metabolize” value is listed as “can metabolize”. Moreover, the Metabolized entry (compound as carbon source) was “yes”.
Taken in the same sequence, the figures for `O=C[C@H](O)[C@@H](O)[C@H](O)[C@H](O)C(=O)O` [D-Glucuronic Acid] were “no”, “can metabolize” and “yes”.
For `COC(=O)[C@@H](C)O` [D-Lactic Acid Methyl Ester], the “Carbon sources that Mortierella elongata AG77 can metabolize” value is recorded as “can metabolize”. For the same molecule, under “compound as carbon source”, the Metabolized entry was “yes”. For the same molecule, the Toxic result under setting [1] is listed as “no”.
`O=C(O)C[C@@H](O)C(=O)O` [D-Malic Acid]: the Metabolized entry (compound as carbon source) is reported as “no”. The Toxic result under setting [1] is “no”.
With `OC[C@@H](O)[C@@H](O)[C@H](O)[C@H](O)CO` [D-Mannitol], the Toxic entry is given as “no”. Besides, the Metabolized entry (compound as carbon source) was “no”.
For the molecule `O=C[C@@H](O)[C@@H](O)[C@H](O)[C@H](O)CO` [D-Mannose], the Toxic entry is “no”. For the setting “compound as carbon source”, the Metabolized entry is reported as “no”.
As to `OC[C@H]1O[C@@](CO)(O[C@H]2O[C@H](CO)[C@@H](O)[C@H](O)[C@H]2O)[C@@H](O[C@H]2O[C@H](CO)[C@@H](O)[C@H](O)[C@H]2O)[C@@H]1O` [D-Melezitose], for the setting “compound as carbon source”, the Metabolized entry was “no”. Moreover, under setting [1], the Toxic entry was “no”.
Consider `OC[C@H]1O[C@H](OCC2O[C@@H](O)[C@H](O)[C@@H](O)[C@@H]2O)[C@H](O)[C@@H](O)[C@H]1O` (stereo partly drawn) [D-Melibiose], for which the Metabolized entry (compound as carbon source) is recorded as “no”. Under setting [1], the Toxic result is given as “no”.
In the case of `O=C(CO)[C@H](O)[C@H](O)[C@H](O)CO` [D-Psicose], the Toxic result was “no” and the “Carbon sources that Mortierella elongata AG77 can metabolize” value is listed as “can metabolize”. Further, the Metabolized entry (compound as carbon source) is on record as “yes”.
Taken in the same sequence, the figures for `OC[C@H]1O[C@H](OC[C@H]2O[C@H](O[C@]3(CO)O[C@H](CO)[C@@H](O)[C@@H]3O)[C@H](O)[C@@H](O)[C@@H]2O)[C@H](O)[C@@H](O)[C@H]1O` [D-Raffinose] were “no”, “can metabolize” and “yes”.
Turning to `O=C1O[C@H](CO)[C@@H](O)[C@H]1O` [D-Ribono-1,4-Lactone], the Metabolized result (compound as carbon source) was “no”. Besides, the Toxic result under setting [1] is recorded as “no”.
